The values that follow come from patent US11591476B2, “In-vivo probe for real time longitudinal monitoring of inducible nitric-oxide synthase in living cells and animals” (priority 2016, dated 2023).

This data set is described as follows: Fluorescence excitation and emission maxima of the probes. The data set is classed as physicochemical. An excerpt: The probe of the present disclosure can selectively bind iNOS enzyme and produce a perceptible change in fluorescence upon binding.

As for `CN1c2cc3c(cc2C(CS(=O)(=O)[O-])=CC1(C)C)C(c1c(Cl)c(SCC(=O)NCCCCCC(=O)N2CCN(c4ccnc(-n5ccnc5)n4)C(CC(=O)NCc4ccc5c(c4)OCO5)C2)c(Cl)c(Cl)c1C(=O)O)=c1cc2c(cc1O3)=[N+](C)C(C)(C)C=C2CS(=O)(=O)O` (centres unmarked) [PIA-610, Pyrimidine Imidazole Alexa-Fluor-610], the emission wavelength amounted to 630 nm and the maximum excitation wavelength worked out at 610 nm.
